Data from patent US8268814B2, “Substituted sulfonamide compounds” (Gruenenthal GmbH, priority 2008, dated 2012).

target: T1, B1R receptor of the rat (rB1R) (Rattus norvegicus, UniProt P97583); experiment: Functional FLIPR Ca2+ assay on the bradykinin 1 receptor, rat (rB1R CHO K1 cells); assay type: cell-based; conditions: test substance 10 μM; CHO K1 cells transfected with rat B1R gene; agonist Des-Arg9-bradykinin at EC80; % inhibition compared with maximum achievable inhibition; read-out: B1R antagonism, rat [10 μM] % inhibition
T1 construct: expressed in transfected cells; host or cells: CHO K1 cells (Chinese hamster ovary), stably transfected
T1 sequence (P97583 1-337): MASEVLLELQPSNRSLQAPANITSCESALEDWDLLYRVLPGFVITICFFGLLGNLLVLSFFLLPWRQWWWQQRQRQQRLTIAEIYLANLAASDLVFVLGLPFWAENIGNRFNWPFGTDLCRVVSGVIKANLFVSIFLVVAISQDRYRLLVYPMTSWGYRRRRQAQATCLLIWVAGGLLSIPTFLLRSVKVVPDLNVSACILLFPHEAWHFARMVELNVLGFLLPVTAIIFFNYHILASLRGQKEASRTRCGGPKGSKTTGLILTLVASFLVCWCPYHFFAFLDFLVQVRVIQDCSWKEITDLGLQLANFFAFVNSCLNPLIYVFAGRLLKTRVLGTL
Description: The agonistic or antagonistic action of substances can be quantified on the bradykinin 1 receptor (B1R) of the human and rat species with ectopically expressing cell lines (CHO K1 cells) and with the aid of a Ca^2+-sensitive dyestuff (Fluo-4) in a fluorescent imaging plate reader (FLIPR). The figure in % activation is based on the Ca^2+ signal after addition of Lys-Des-Arg^9-bradykinin (0.5 nM) or Des-Arg^9-bradykinin (100 nM). Antagonists lead to a suppression of the Ca^2+ inflow after addition of the agonist. % inhibition compared with the maximum achievable inhibition is stated.
The agonistic or antagonistic action of substances can be determined on the bradykinin 1 receptor (B1R) of the human and rat species with the following assay. In accordance with this assay, the Ca^2+ inflow through the channel is quantified with the aid of a Ca^2+-sensitive dyestuff (type Fluo-4, Molecular Probes Europe BV, Leiden, Holland) in a fluorescent imaging plate reader (FLIPR, Molecular Devices, Sunnyvale, USA).
Chinese hamster ovary cells (CHO K1 cells) transfected stably with the human B1R gene (hB1R cells) or the B1R gene of the rat (rB1R cells) are used. For functional studies, these cells are plated out on black 96-well plates with a clear base (BD Biosciences, Heidelberg, Germany or Greiner, Frickenhausen, Germany) in a density of 20,000-35,000 cells/well. The cells are left overnight at 37° C. and 5% CO2 in culture medium (hB1R cells: Nutrient Mixture Ham's F12, Gibco Invitrogen GmbH, Karlsruhe, Germany or DMEM, Sigma-Aldrich, Taufkirchen, Germany; rB1R cells: D-MEM/F12, Gibco Invitrogen GmbH, Karlsruhe, Germany) with 10 vol. % FBS (foetal bovine serum, Gibco Invitrogen GmbH, Karlsruhe, Germany or PAN Biotech GmbH, Aidenbach, Germany). On the following day, the cells are loaded for 60 min at 37° C. with 2.13 μM Fluo-4 (Molecular Probes Europe BV, Leiden, Holland) in HBSS buffer (Hank's buffered saline solution, Gibco Invitrogen GmbH, Karlsruhe, Germany) with 2.5 mM probenecid (Sigma-Aldrich, Taufkirchen, Germany) and 10 mM HEPES (Sigma-Aldrich, Taufkirchen, Germany). The plates are then washed 2× with HBSS buffer, and HBSS buffer which additionally contains 0.1% BSA (bovine serum albumin; Sigma-Aldrich, Taufkirchen, Germany), 5.6 mM glucose and 0.05% gelatine (Merck KgaA, Darmstadt, Germany) is added. After a further incubation of 20 minutes at room temperature, the plates are inserted into the FLIPR for the Ca^2+ measurement.
Alternatively, the plates are washed with buffer A (15 mM HEPES, 80 mM NaCl, 5 mM KCl, 1.2 mM CaCl2, 0.7 mM MgSO4, 2 g/l glucose, 2.5 mM probenecid), buffer A is added and the plates are loaded with 2.5 μM Fluo-4 and 0.025% Pluronic F127 (Sigma-Aldrich, Taufkirchen, Germany). Thereafter, the cells are washed 2× with buffer A and incubated for 30 minutes with buffer A, which additionally contains 0.05% BSA and 0.05% gelatine, at room temperature and thereafter inserted into the FLIPR for the Ca^2+ measurement. The Ca^2+-dependent fluorescence is measured here before and after addition of substances (λex=488 nm, λem=540 nm). Quantification is by measurement of the highest fluorescence intensity (FC, fluorescence counts) over time.
The FLIPR protocol consists of 2 additions of substance. Test substances (10 μM) are first pipetted on to the cells and the Ca^2+ inflow is compared with the control (hB1R: Lys-Des-Arg^9-bradykinin >=50 nM; rB1R: Des-Arg^9-bradykinin 10 μM). This gives the figure in % activation based on the Ca^2+ signal after addition of Lys-Des-Arg^9-bradykinin (>=50 nM) or Des-Arg^9-bradykinin (10 μM). After incubation for 10-20 minutes, Lys-Des-Arg^9-bradykinin (hB1R) or Des-Arg^9-bradykinin (rB1R) in the concentration of the EC80 is applied and the inflow of Ca^2+ is likewise determined. Antagonists lead to a suppression of the Ca^2+ inflow. % inhibition compared with the maximum achievable inhibition is calculated. In order to determine the IC50 value, the substances are added in various concentrations. […]

inhibition at 10 µM	Compound
99%	CN1CCN(Cc2cc3c(s2)CCN(C(=O)CCCC2CCCCN2S(=O)(=O)c2cccc4ccccc24)C3)CC1 (centres unmarked) [Example 73, 1-[2-[(4-Methyl-piperazin-1-yl)-methyl]-4,5,6,7-tetrahydro-thieno[3,2-c]pyridin-5-yl]-4-[1-(naphthalen-1-ylsulfonyl)-piperidin-2-yl]-butan-1-one]
93%	CN1CCN(Cc2cc3c(s2)CCN(C(=O)COCC2COc4ccccc4N2S(=O)(=O)c2ccccc2C(F)(F)F)C3)CC1 (centres unmarked) [Example 93, 1-[2-[(4-Methyl-piperazin-1-yl)-methyl]-4,5,6,7-tetrahydro-thieno[3,2-c]pyridin-5-yl]-2-[[4-[[2-(trifluoromethyl)-phenyl]sulfonyl]-3,4-dihydro-2H-[1,4]benzoxazin-3-yl]-methoxy]-ethanone]
103%	Cc1cccc(Cl)c1S(=O)(=O)N1CCCCC1CCCC(=O)N1CCc2sc(CN3CCN(C)CC3)cc2C1 (centres unmarked) [Example 68, 4-[1-[(2-Chloro-6-methyl-phenyl)sulfonyl]-piperidin-2-yl]-1-[2-[(4-methyl-piperazin-1-yl)-methyl]-4,5,6,7-tetrahydro-thieno[3,2-c]pyridin-5-yl]-butan-1-one]
65%	O=C(CCCC1CCCCN1S(=O)(=O)c1ccccc1C(F)(F)F)N1CCc2[nH]cnc2C1c1ccccc1 (centres unmarked) [Example 88, 1-(4-Phenyl-4,5,6,7-tetrahydro-1H-imidazo[4,5-c]pyridin-5-yl)-4-[1-[[2-(trifluoromethyl)-phenyl]sulfonyl]-piperidin-2-yl]-butan-1-one]
98%	COc1cc(C)c(S(=O)(=O)N(CCOCC(=O)N2CCc3sc(CN4CCN(C)CC4)cc3C2)Cc2ccc3c(c2)OCOC3)c(C)c1 [Example 78, N-(4H-[1,3]Benzodioxin-7-yl-methyl)-4-methoxy-2,6-dimethyl-N-[2-[2-[2-[(4-methyl-piperazin-1-yl)-methyl]-4,5,6,7-tetrahydro-thieno[3,2-c]pyridin-5-yl]-2-oxo-ethoxy]-ethyl]-benzenesulfonic acid amide]
101%	COc1cc(C)c(S(=O)(=O)N2CCCCC2COCCC(=O)N2CCc3[nH]cnc3C2c2ccccc2)c(C)c1 (centres unmarked) [Example 100, 3-[[1-[(4-Methoxy-2,6-dimethyl-phenyl)sulfonyl]-piperidin-2-yl]-methoxy]-1-(4-phenyl-4,5,6,7-tetrahydro-1H-imidazo[4,5-c]pyridin-5-yl)-propan-1-one]
54%	COc1cc(C)c(S(=O)(=O)N(C)CCOCC(=O)N2CCc3[nH]cnc3C2c2ccccc2)c(C)c1C (centres unmarked) [Example 96, 4-Methoxy-N,2,3,6-tetramethyl-N-[2-[2-oxo-2-(4-phenyl-4,5,6,7-tetrahydro-1H-imidazo[4,5-c]pyridin-5-yl)-ethoxy]-ethyl]-benzenesulfonic acid amide]
99%	COc1cc(C)c(S(=O)(=O)N(C)CCOCC(=O)N2CCc3sc(CN4CCN(C)CC4)cc3C2)c(C)c1C [Example 95, 4-Methoxy-N,2,3,6-tetramethyl-N-[2-[2-[2-[(4-methyl-piperazin-1-yl)-methyl]-4,5,6,7-tetrahydro-thieno[3,2-c]pyridin-5-yl]-2-oxo-ethoxy]-ethyl]-benzenesulfonic acid amide]
96%	CN1CCN(Cc2cc3c(s2)CCN(C(=O)COCC2CCCCN2S(=O)(=O)c2ccccc2C(F)(F)F)C3)CC1 (centres unmarked) [Example 97, 1-[2-[(4-Methyl-piperazin-1-yl)-methyl]-4,5,6,7-tetrahydro-thieno[3,2-c]pyridin-5-yl]-2-[[1-[[2-(trifluoromethyl)-phenyl]sulfonyl]-piperidin-2-yl]-methoxy]-ethanone]
103%	CN1CCN(Cc2cc3c(s2)CCN(C(=O)CCCC2CCCCN2S(=O)(=O)c2ccccc2C(F)(F)F)C3)CC1 (centres unmarked) [Example 87, 1-[2-[(4-Methyl-piperazin-1-yl)-methyl]-4,5,6,7-tetrahydro-thieno[3,2-c]pyridin-5-yl]-4-[1-[[2-(trifluoromethyl)-phenyl]sulfonyl]-piperidin-2-yl]-butan-1-one]
101%	COc1cc(C)c(S(=O)(=O)N(CCOCC(=O)N2CCc3sc(CN4CCN(C)CC4)cc3C2)c2ccccc2)c(C)c1 [Example 83, 4-Methoxy-2,6-Dimethyl-N-[2-[2-[2-[(4-methyl-piperazin-1-yl)-methyl]-4,5,6,7-tetrahydro-thieno[3,2-c]pyridin-5-yl]-2-oxo-ethoxy]-ethyl]-N-phenyl-benzenesulfonic acid amide]
98%	O=C(COCC1CCCCN1S(=O)(=O)c1ccccc1C(F)(F)F)N1CCc2[nH]cnc2C1c1ccccc1 (centres unmarked) [Example 98, 1-(4-Phenyl-4,5,6,7-tetrahydro-1H-imidazo[4,5-c]pyridin-5-yl)-2-[[1-[[2-(trifluoromethyl)-phenyl]sulfonyl]-piperidin-2-yl]-methoxy]-ethanone]
103%	CN1CCN(Cc2cc3c(s2)CCN(C(=O)CCCC2CCCCN2S(=O)(=O)c2ccc4ccccc4c2)C3)CC1 (centres unmarked) [Example 75, 1-[2-[(4-Methyl-piperazin-1-yl)-methyl]-4,5,6,7-tetrahydro-thieno[3,2-c]pyridin-5-yl]-4-[1-(naphthalen-2-ylsulfonyl)-piperidin-2-yl]-butan-1-one]
102%	COc1cc(C)c(S(=O)(=O)N2c3ccccc3CCC2COCC(=O)N2CCc3sc(CN4CCN(C)CC4)cc3C2)c(C)c1 (centres unmarked) [Example 85, 2-[[1-[(4-Methoxy-2,6-dimethyl-phenyl)sulfonyl]-1,2,3,4-tetrahydro-quinolin-2-yl]-methoxy]-1-[2-[(4-methyl-piperazin-1-yl)-methyl]-4,5,6,7-tetrahydro-thieno[3,2-c]pyridin-5-yl]-ethanone]
64%	Cc1cccc(Cl)c1S(=O)(=O)N1CCCCC1CCCC(=O)N1CCc2[nH]cnc2C1c1ccccc1 (centres unmarked) [Example 69, 4-[1-[(2-Chloro-6-methyl-phenyl)sulfonyl]-piperidin-2-yl]-1-(4-phenyl-4,5,6,7-tetrahydro-1H-imidazo[4,5-c]pyridin-5-yl)-butan-1-one]
56%	Cc1cc(S(=O)(=O)N2CCCCC2CCC(=O)N2CCc3onc(C(=O)N4CCCCC4)c3C2)c(C)cc1Cl (centres unmarked) [Example 04, 3-(1-(4-chloro-2,5-dimethylphenylsulfonyl)piperidin-2-yl)-1-(3-(piperidine-1-carbonyl)-6,7-dihydroisoxazolo[4,5-c]pyridin-5(4H)-yl)propan-1-one]
101%	COc1cc(C)c(S(=O)(=O)N2CCCCC2CCCC(=O)N2CCc3[nH]cnc3C2c2ccccc2)c(C)c1 (centres unmarked) [Example 71, 4-[1-[(4-Methoxy-2,6-dimethyl-phenyl)sulfonyl]-piperidin-2-yl]-1-(4-phenyl-4,5,6,7-tetrahydro-1H-imidazo[4,5-c]pyridin-5-yl)-butan-1-one]
